Reference: patent US20080287445A1, “Prokineticin 2 receptor antagonists” (priority 2005, published 2008)
“And” between values parts separate entries of the source, which are not always exact repeats. Identical values can stand only once.

Molecular target: T1, GPR73 (prokineticin 1 receptor) (Homo sapiens, UniProt Q8TCW9)
T1 construct: expressed in transfected cells; host or cells: HEK 293
Assay: PK1 functional assay: Ca2+ mobilization screening for PK1 antagonists on the FLIPR
Type: cell-based
Conditions: HEK 293 GPR73 cells, multiple values = multiple testing; for Ca^2+ Mobilization % Inh @ 10 μM: 10 μM compound; for inhibition at 10 µM: HEK293, 10 μM compound, read-out: Ca^2+ Mobilization % Inh @ 10 μM; for IC50: PK1 ligand preparation at its EC50, read-out: Ca^2+ Mobilization IC50
Experimental: At a time of 24 h prior to running the assay, in cell culture media (DMEM containing high Glucose and L-glutamine, 10% FBS, 1% Pen/Streptomycin, 1% Sodium Pyruvate, 20 mM HEPES, Zeocin 200 mg/L), 100 μL of 1.3*10^6/ml HEK 293 GPR73 (prokineticin 1 receptor) expressing cells were plated in a 96 well poly-d-lysine coated plate (Costar), and incubated at 37 C and 5% CO2. On the day in which the assay was run, the media was removed and 200 μL of 5× Calcium Plus Dye (Molecular Devices) which was previously resuspended with 200 mL of assay buffer [HBSS w/Ca^2+ and Mg^2+ w/o phenol red, 20 mM HEPES, 0.1% BSA, 10 mL probenecid (710 mg probenecid in 5 mL of 1N NaOH, to which was then added 5 mL HBSS containing 20 mM HEPES)] was added to each well of the 96-well plate. The plate was incubated at 37 C and 5% CO2 for 30 min in dark. The plate was removed and allowed to reach RT for 15 min in the dark. The assay was then run on the FLIPR. In Brief: base line read for 1 min, compound added (25 μL) and incubated for 4 min, 15 seconds, PK1 ligand preparation added (25 μL) for a final concentration of a previously determined EC50 and fluorescence was counted for 1 min, 45 seconds. Baseline is described as the amount of relative fluorescence read when buffer alone is added to cells. Baseline was subtracted from all wells. Percent of control was calculated as follows:
(Baseline subtracted well value is divided by baseline subtracted max value)*100. Percent inhibition is 100 minus the percent of control value.
The IC50 is defined as the amount of a given compound required to inhibit 50% of the maximum signal that is generated by the concentration of PK1 preparation used in our assay. IC50 values were calculated using GraphPad Prism.

T1 sequence (Q8TCW9 whole entry, species assumed): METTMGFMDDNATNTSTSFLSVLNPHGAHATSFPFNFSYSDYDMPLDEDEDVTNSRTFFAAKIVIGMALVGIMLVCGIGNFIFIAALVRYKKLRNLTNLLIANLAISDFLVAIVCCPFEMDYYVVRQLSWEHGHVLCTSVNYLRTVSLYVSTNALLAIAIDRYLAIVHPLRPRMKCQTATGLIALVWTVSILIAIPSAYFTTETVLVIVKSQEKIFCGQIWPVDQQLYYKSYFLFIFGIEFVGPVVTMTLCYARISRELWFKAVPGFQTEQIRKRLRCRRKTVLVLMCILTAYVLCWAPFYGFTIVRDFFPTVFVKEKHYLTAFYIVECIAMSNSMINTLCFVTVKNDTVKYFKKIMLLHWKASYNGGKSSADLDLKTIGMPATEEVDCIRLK

Row | Ca^2+ Mobilization % Inh @ 10 μM | inhibition at 10 µM | IC50 | Compound
1 |  | 93% | 0.207 µM | COc1ccc(Cn2c(NCc3cccnc3NCCN(C)C)nc(=O)n(Cc3ccc(OC)cc3)c2=O)cc1 [Cpd 51]
2 |  | 94% | 0.973 µM | COc1ccc(Cn2c(=O)nc(NCc3cccnc3N)n(Cc3ccc(C(N)=O)cc3)c2=O)cc1 [Cpd 52]
3 |  | 45% | > 10 µM | COc1ccc(Cn2c(NCc3ccc[n+]([O-])c3)nc(=O)n(Cc3ccc(OC)cc3)c2=O)cc1 [Cpd 53]
4 | 42% and 64% |  | 3.47 µM and > 10 µM | COc1ccc(Cn2c(NCc3cccnc3N)nc(=O)n(Cc3ccc(O)cc3)c2=O)cc1 [Cpd 54, 6-[(2-Amino-pyridin-3-ylmethyl)-amino]-3-(4-hydroxy-benzyl)-1-(4-methoxy-benzyl)-1H-[1,3,5]triazine-2,4-dione]
5 |  | 44% | > 10 µM | COc1ccc(Cn2c(NCc3cccnc3N)nc(=O)n(Cc3cccc(F)c3)c2=O)cc1 [Cpd 55]
6 |  | 95% | 0.089 µM | COc1ccc(Cn2c(NCc3c(OC)ccnc3N)nc(=O)n(Cc3ccc(OC)cc3)c2=O)cc1 [Cpd 58]
7 |  | 88% | 0.35 µM | COc1ccc(Cn2c(NCc3cnc(C)cc3C)nc(=O)n(Cc3ccc(F)cc3)c2=O)cc1 [Cpd 60]
8 | 101% | 87% |  | COc1ccc(Cn2c(NCc3cnc(C)cc3C)cc(=O)n(Cc3ccc(OC)cc3)c2=O)cc1 [Cpd 61]
9 |  | 52% | 2.03 µM | COc1ccc(Cn2c(NCc3cc(C)ccn3)nc(=O)n(Cc3ccc(OC)cc3)c2=O)cc1 [Cpd 62]
10 |  | 83% | 0.271 µM | CCc1ccc(Cn2c(NCc3cccnc3N)nc(=O)n(Cc3ccc(OC)cc3)c2=O)cc1 [Cpd 63]
11 | 51% | 50% | 5.26 µM and 8.51 µM | COc1ccc(Cn2c(NCc3cccc(C(F)(F)F)n3)nc(=O)n(Cc3ccc(OC)cc3)c2=O)cc1 [Cpd 64]
12 |  |  | > 10 µM | COc1ccc(Cn2c(NCc3ncccc3C)nc(=O)n(Cc3ccc(OC)cc3)c2=O)cc1 [Cpd 65]
13 |  | 95% | 0.217 µM | COc1ccc(Cn2c(NCc3cccnc3NCC3CCCO3)nc(=O)n(Cc3ccc(OC)cc3)c2=O)cc1 (centres unmarked) [Cpd 68]
14 |  | 93% | 0.337 µM | COc1ccc(Cn2c(NCc3cccnc3NCc3ccco3)nc(=O)n(Cc3ccc(OC)cc3)c2=O)cc1 [Cpd 69]
15 |  | 54% | 7.46 µM | COCCNc1ncccc1CNc1nc(=O)n(CCc2ccc([N+](=O)[O-])cc2)c(=O)n1Cc1ccc(OC)cc1 [Cpd 74]
16 |  | 99% | 0.131 µM | COc1ccc(Cn2c(=O)nc(NCc3cccnc3N)n(Cc3ccc(SC)cc3)c2=O)cc1 [Cpd 75]
17 | 95% | 94% | 0.036 µM and 0.113 µM | COCCCCCn1c(NCc2cccnc2N)nc(=O)n(Cc2ccc(OC)cc2)c1=O [Cpd 78, 6-[(2-Amino-pyridin-3-ylmethyl)-amino]-3-(4-methoxy-benzyl)-1-(5-methoxy-pentyl)-1H-[1,3,5]triazine-2,4-dione]
18 |  | 85% | 0.679 µM | CCCCCCn1c(NCc2cccnc2N)nc(=O)n(Cc2ccc(OC)cc2)c1=O [Cpd 79]
19 |  | 82% | 0.668 µM | COc1ccc(Cn2c(NCc3cnc(C)cc3C)nc(=O)n(Cc3ccc(OC(F)F)cc3)c2=O)cc1 [Cpd 83]
20 |  | 31% | > 10 µM | CCc1ccccc1Cn1c(NCc2cccnc2N)nc(=O)n(Cc2ccc(OC)cc2)c1=O [Cpd 86]
21 |  | 41% | > 10 µM | COc1ccc(Cn2c(=O)nc(NCc3cccnc3N)n(Cc3ccccc3C#N)c2=O)cc1 [Cpd 88]
22 |  | 82% | 0.817 µM | COc1ccc(Cn2c(NCc3cccnc3N)nc(=O)n(Cc3ccc(I)cc3)c2=O)cc1 [Cpd 89]
23 |  | 71% | 2.33 µM | COc1ccc(Cn2c(NCc3cccnc3N)nc(=O)n(Cc3ccc(-n4cccn4)cc3)c2=O)cc1 [Cpd 90]
24 |  | 59% | 3.98 µM | Nc1ncccc1CNc1nc(=O)n(Cc2ccc(F)cc2)c(=O)n1Cc1ccc(OC(F)(F)F)cc1 [Cpd 91]
25 |  | 58% | 5.16 µM | COc1ccc(Cn2c(=O)nc(NCc3cccnc3N)n(Cc3ccccc3OC)c2=O)cc1 [Cpd 92]
26 |  | 96% | 0.116 µM | COC(=O)c1cccc(Cn2c(NCc3cccnc3N)nc(=O)n(Cc3ccc(OC)cc3)c2=O)c1 [Cpd 93]
27 |  |  | 0.273 µM | COc1ccc(Cn2c(=O)nc(NCc3cnc(C)cc3C)n(Cc3ccc(OC(F)F)cc3)c2=O)cc1 [Cpd 96]
28 |  | 91% | 0.1 µM | COc1ccc(Cn2c(=O)nc(NCc3cnc(C)cc3C)n(Cc3cccc(OC(F)(F)F)c3)c2=O)cc1 [Cpd 99]
29 |  | 62% | 0.533 µM | COc1ccc(Cn2c(=O)nc(NCc3cnc(C)cc3C)n(Cc3ccc(SC)cc3)c2=O)cc1 [Cpd 100]
30 |  | 60% | 3.3 µM | COc1ccc(Cn2c(=O)nc(NCc3cnc(C)cc3C)n(Cc3ccncc3)c2=O)cc1 [Cpd 101]

The remaining lines, values behind:

Row | Compound | Ca^2+ Mobilization % Inh @ 10 μM | inhibition at 10 µM | IC50
31 | COCCNc1ncccc1CNc1nc(=O)n(Cc2ccc(OC)cc2)c(=O)n1Cc1ccc(OC)cc1 [Cpd 50] | 100% | 91% | 0.024 µM and 0.072 µM
32 | COC(=O)c1ccc(Cn2c(=O)nc(NCc3cccnc3N)n(Cc3ccc(OC)cc3)c2=O)cc1 [Cpd 56] |  | 47% | > 10 µM
33 | COc1ccc(Cn2c(NCc3cc(-c4ccccc4)cnc3N)nc(=O)n(Cc3ccc(OC)cc3)c2=O)cc1 [Cpd 57] |  | 59% | 4.77 µM
34 | COc1ccc(Cn2c(NCc3ccc(C)nc3)nc(=O)n(Cc3ccc(OC)cc3)c2=O)cc1 [Cpd 59] |  | 94% | 0.178 µM
35 | COc1ccc(Cn2c(NCc3cccnc3NCCSC)nc(=O)n(Cc3ccc(OC)cc3)c2=O)cc1 [Cpd 66] |  | 92% | 0.401 µM
36 | COc1ccc(Cn2c(NCc3cccnc3NCCC(C)C)nc(=O)n(Cc3ccc(OC)cc3)c2=O)cc1 [Cpd 67] |  | 55% | 4.82 µM
37 | CCN1CCCC1CNc1ncccc1CNc1nc(=O)n(Cc2ccc(OC)cc2)c(=O)n1Cc1ccc(OC)cc1 (centres unmarked) [Cpd 70] |  | 94% | 0.56 µM
38 | COCCNc1ncccc1CNc1nc(=O)n(CCc2ccccc2)c(=O)n1Cc1ccc(OC)cc1 [Cpd 71] |  | 38% | > 10 µM
39 | COCCNc1ncccc1CNc1nc(=O)n(CCOc2ccccc2)c(=O)n1Cc1ccc(OC)cc1 [Cpd 72] |  | 81% | 1.17 µM
40 | COCCNc1ncccc1CNc1nc(=O)n(CC2COc3ccccc3O2)c(=O)n1Cc1ccc(OC)cc1 (centres unmarked) [Cpd 73] |  | 58% | 5.93 µM
41 | COc1ccc(Cn2c(=O)nc(NCc3cccnc3N)n(Cc3ccncc3)c2=O)cc1 [Cpd 76] |  | 67% | 1.46 µM
42 | COc1ccc(Cn2c(=O)nc(NCc3cccnc3N)n(Cc3cc4ccccc4o3)c2=O)cc1 [Cpd 77] |  | 91% | 0.449 µM
43 | COc1ccc(Cn2c(=O)nc(NCc3cccnc3N)n(Cc3cccc(OC)c3)c2=O)cc1 [Cpd 80] |  | 70% | 2.03 µM
44 | COc1ccc(Cn2c(=O)nc(NCc3cccnc3N)n(Cc3cccc(C#N)c3)c2=O)cc1 [Cpd 81] |  | 36% | > 10 µM
45 | COc1ccc(Cn2c(=O)nc(NCc3cccnc3N)n(Cc3cccc([N+](=O)[O-])c3)c2=O)cc1 [Cpd 82] |  | 38% | > 10 µM
46 | COc1ccc(Cn2c(NCc3cccnc3N)nc(=O)n(Cc3ccc(OC(F)F)cc3)c2=O)cc1 [Cpd 84] |  | 70% | 1.22 µM
47 | COc1ccc(Cn2c(=O)nc(NCc3cccnc3N)n(Cc3ccccc3OC(F)(F)F)c2=O)cc1 [Cpd 87] |  | 53% | > 10 µM
48 | COc1ccc(CCn2c(NCc3cccnc3N)nc(=O)n(Cc3ccc(OC)cc3)c2=O)cc1 [Cpd 94] |  | 91% | 0.373 µM
49 | COc1ccc(Cn2c(=O)nc(NCc3cccnc3N)n(Cc3ccc(OC)nc3)c2=O)cc1 [Cpd 95] |  | 92% | 0.084 µM
50 | COc1ccc(Cn2c(NCc3c(C)cc(C)nc3N)nc(=O)n(Cc3ccc(OC)cc3)c2=O)cc1 [Cpd 97, 6-[(2-Amino-4,6-dimethyl-pyridin-3-ylmethyl)-amino]-1,3-bis-(4-methoxy-benzyl)-1H-[1,3,5]triazine-2,4-dione] | 96% and 98% | 90% | 0.006 µM and 0.007 µM and 0.019 µM
51 | COc1ccc(Cn2c(=O)nc(NCc3cccnc3N)n(Cc3cccc(OC(F)(F)F)c3)c2=O)cc1 [Cpd 98] |  | 77% | 0.736 µM
